AC50, IC50 and EC50 data for 9 compounds are collected here from ChEMBL document CHEMBL1201862, “PubChem BioAssay data set” (2004).

One experiment has as its target Caspase-6 (Homo sapiens, UniProt P55212). The experiment is described as follows: inhibition of CASP6 peptide cleavage – biochemical, VEID-R110 fluorescence, cherry-pick, dose response (AID 720632).
Another experiment has as its target Prothrombin (Homo sapiens, UniProt P00734). The experiment is described as follows: Thrombin 1536 HTS Dose Response Confirmation. [Related pubchem assays: 1046 (Thrombin 1536 HTS; hits were confirmed in this assay)]. The experiment is classed as functional.
The nature of experiment [1]: M. tuberculosis growth inhibition, HTS (AID 449762). The class given is functional.
The next experiment has as its system Streptococcus. In words: GAS UMAA2166 growth inhibition – luminescence, BacTiterGlo, counter-screen for streptokinase expression inhibitor project, dose response (AID 1915).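 Also: potency for reduction of bacterial viability or growth.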 The class given is functional, organism-based.
Experiment [2] relates to Streptococcus sp. 'group A'. The experiment is described as follows: Streptococcus pyogenes SK(-)GAS viability under kanamycin – luminescence, BacTiterGlo, confirmation, counter-screen for streptokinase expression inhibitor project, dose response (AID 1900). The experiment is classed as functional, organism-based. In general terms: Counterscreens check selectivity or assay interference.

Experiment [3] can be described thus: A cytotoxicity screen of small molecule inhibitors of the PhoP region in Salmonella typhi identified in the primary screen. [Related pubchem assays: 1850, 1864, 1985 ]. The class given is functional.
Experiment [4] concerns the target T1, Oxysterols receptor LXR-beta (Homo sapiens, UniProt P55055).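 Also: Cell-based luminescence dose-response assay of agonist activity at LXR, run as a confirmatory counterscreen to a daf-12 agonist screen; HEK293 cells with Gal4-LXR fusion and GAL4-driven luciferase reporter; agonist potency from rising luciferase signal of a Gal4-LXR reporter.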
T1 sequence (P55055 whole entry): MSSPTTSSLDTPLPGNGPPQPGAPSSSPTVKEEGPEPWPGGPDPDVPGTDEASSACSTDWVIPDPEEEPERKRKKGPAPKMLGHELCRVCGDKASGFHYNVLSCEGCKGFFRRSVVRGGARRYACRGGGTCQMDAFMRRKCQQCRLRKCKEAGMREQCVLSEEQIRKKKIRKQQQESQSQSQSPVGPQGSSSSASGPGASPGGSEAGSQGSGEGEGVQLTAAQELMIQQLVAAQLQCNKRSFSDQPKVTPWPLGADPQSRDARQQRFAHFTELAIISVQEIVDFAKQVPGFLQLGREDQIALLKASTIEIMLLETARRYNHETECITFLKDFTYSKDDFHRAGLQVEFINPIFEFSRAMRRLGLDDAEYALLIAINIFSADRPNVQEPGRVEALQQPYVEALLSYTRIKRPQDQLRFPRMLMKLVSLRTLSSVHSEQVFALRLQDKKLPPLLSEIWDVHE
The class given is functional, cell-based.

The next experiment deals with Kallikrein-7 (Homo sapiens, UniProt P49862). The experiment is described as follows: Fluorescence Intensity-based biochemical primary high throughput dose response assay to identify activators of kallikrein-7 (K7) zymogen.
Sequence of Kallikrein-7 (P49862 whole entry): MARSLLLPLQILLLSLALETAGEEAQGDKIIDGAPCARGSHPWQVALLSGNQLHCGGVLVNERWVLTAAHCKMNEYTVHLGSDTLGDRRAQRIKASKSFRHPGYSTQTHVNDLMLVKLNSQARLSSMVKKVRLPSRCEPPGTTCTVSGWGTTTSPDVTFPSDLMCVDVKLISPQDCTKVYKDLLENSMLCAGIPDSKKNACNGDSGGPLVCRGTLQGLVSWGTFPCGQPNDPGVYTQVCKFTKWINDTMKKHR
Experiment [5] can be described thus: anti-trypanosomal activity in BESM host cells – imaging, CA-I/72 strain, bovine embryo skeletal muscle, dry powder, dose response (AID 651885). The class given is functional, cell-based.
A short description of experiment [6]: COV434 cell viability loss – plate reader, dry powder, SA7, cytotoxicity control for PAX8 inhibitor project, dose response (AID 743145). The class given is functional, cell-based.
Experiment [7] is described as follows: COV362 cell viability loss – plate reader, dry powder, SA12, cytotoxicity control for PAX8 inhibitor project, dose response (AID 743144). The class given is functional, cell-based.
Experiment [8] is described as follows: inhibitors acting on PAX2 in cells – cell-based, plate reader, dry powder samples, selectivity assay for PAX8 inhibitor project, dose response (AID 743048).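 Also: HEK293 cells carrying a WT1 promoter luciferase reporter driven by expressed Pax2; potency is for inhibition of Pax2 driven reporter signal.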 The class given is functional.
Experiment [9] is described as follows: A2780 cell killing – plate reader, dry powder samples, cytotoxicity control, dose response (AID 743046). The experiment is classed as functional, cell-based.
A short description of experiment [10]: IGROV1 cell killing – plate reader, dry powder samples, PAX8 inhibitor project, dose response (AID 743043). The experiment is classed as functional, cell-based. Particulars: IGROV-1.
Experiment [11] is described as follows: HIV-1 Vif–A3G interaction blockers – biochemical, TR-FRET, GST-Vif 1-94, biotin-A3G peptide, dose response retest, primary screen (AID 1117319).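 Also: TR-FRET signal of purified GST-Vif binding a biotinylated A3G peptide; inhibitors lower the FRET signal by blocking Vif and A3G binding.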 The experiment is classed as functional. (In general: TR-FRET usually uses a lanthanide donor and a delayed reading to cut background.)

What is called AC50 is the concentration at which the activity in the assay is half-maximal. The IC50 is the concentration at which inhibition is half-maximal. Broadly, the EC50 is the concentration that produces a half-maximal response.

Structures are written as SMILES. Activity calls are given as the source filed them. Where only a bound is given, the exact number is not on record here.

Sequence of Caspase-6 (P55212 24-179 limits assumed): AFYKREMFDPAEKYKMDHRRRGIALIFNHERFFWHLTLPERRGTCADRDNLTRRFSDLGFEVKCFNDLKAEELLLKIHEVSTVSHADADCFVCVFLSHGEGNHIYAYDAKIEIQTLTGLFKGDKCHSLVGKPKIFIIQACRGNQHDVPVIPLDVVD
Sequence of Caspase-6 (P55212 194-293 limits assumed): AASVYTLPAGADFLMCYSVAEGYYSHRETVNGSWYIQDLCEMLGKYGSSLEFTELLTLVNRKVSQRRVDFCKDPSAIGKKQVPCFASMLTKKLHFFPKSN

In the case of `CCOc1ccccc1NC(=O)Cc1cccs1`, the AC50 at Caspase-6 was 16.7 µM (active).
On to `CCC(=O)n1nc(-c2ccc(Cl)cc2)nc1NCc1ccccc1`, for which the half-maximal inhibitory concentration (IC50) on Prothrombin was 1.75 µM (active).
With `Cc1ccc(S(=O)(=O)CN=C(S)c2ccc3ccccc3c2)cc1`, in experiment [1], the IC50 is > 100 µM (active). The 50% effective concentration (EC50) in the experiment on Streptococcus was > 150 µM (not active); in experiment [2], 3.01 µM (active).
In the case of `Cc1cc(N=Nc2ccc(C)c(N=Nc3cc(C)c(N)cc3N)c2)c(N)cc1N`, the concentration giving a half-maximal response (EC50) is > 50 µM (active) in experiment [3], > 67.5 µM (inactive) in experiment [4] and > 67.5 µM (inactive) in “cells”.
As for `CC(=O)Nc1cc2c3c(cccc3c1)-c1ccccc1-2`, the EC50 at Kallikrein-7 was 8.84 µM (active).
With `CC(C)N(C)C(=O)c1cccc(NC(=O)c2ccncc2)c1OCCCN(C)C(=O)OC(C)(C)C`, the 50% inhibitory concentration (IC50) in experiment [5] was 10.2 µM (inconclusive).
For the compound `C[C@@H]1CN([C@@H](C)CO)C(=O)c2cccc(NC(=O)c3ccncc3)c2O[C@H]1CN(C)Cc1ccc(C(F)(F)F)cc1`, the IC50 in experiment [5] was 10 µM (inconclusive).
Consider `N#C[C@H]1[C@@H](c2ccc(C#Cc3cccc(F)c3)cc2)[C@@H](CO)N1C(=O)C1CCCC1`, for which the AC50 is > 70 µM (inactive) in experiment [6]; > 70 µM (inactive) in experiment [7]; > 70 µM (inactive) in [8]; 17.6 µM (active) in experiment [9]; 10.6 µM (active) in experiment [10].
Turning to `COc1ccc(/C=N/NC2=NC(=O)C(c3ccccc3)S2)c(OC)c1` (configuration not stated), the concentration for half-maximal inhibition (IC50) in [11] was > 100 µM (active).
